Measurements: US10434049B2, “Methods of producing compounds that stimulate hair regrowth, topical formulations, and methods of use” (Joventis S.A., priority 2013, dated 2019)

Columns and labels:
Format in all cases: in vivo, human
hair growth [1] = test: Six-month study of twenty volunteers, monthly self-reported hair growth questionnaires; conditions: for participants who noticed new hair growth: lotion applied to scalp at least once a day
Description: In a systematic study of twenty volunteers, including 8 women, study participants self-reported hair regrowth metrics by answering questionnaires at the end of each month of treatment with Formula (I) over the course of six months. The mean age of participants was 54 years old (SD=11 years). Participants had no history of hair implants and had normal eating and sleeping patterns. Participants first read and signed an informed consent form in which they were informed about the hair regeneration product, a lotion comprising Formula (I). The information about Formula (I) included that Formula (I) was designed to increase hair growth, that it was based on natural compounds, and that use of the product would not lead to harmful effects. Participants received explicit instructions on how to use the product, were asked to apply the product at least once a day on their scalp, and were asked not to use any other hair growth or regeneration products for the 6-month duration of the study. […] During this session photos were taken to measure and count any increases in hair regrowth, and participants answered questionnaires that probed the effects using Formula (I). Questionnaires comprised 14 yes or no questions based on Barber's 1998 the hair growth questionnaire. Barber et al., A hair growth questionnaire for use in the evaluation of therapeutic effects in men, J. DERMATOLOGICAL TREATMENT, Vol. 9(3), pp. 181-86 (1998). The questions included: • Did you notice new hair growth during the past month? • Did you notice new hair growth since the start of treatment? • Did you notice any new hair loss during the past month? • Did you notice any new hair loss since the start of the treatment? • Did you notice more hair loss than before since the start of the treatment? • Did you notice that your hairs felt thicker during the past month? • Did you notice that your hairs felt thicker since the start of the treatment? • Did you notice that your hairs felt more healthy during the past month? • Did you notice that your hairs felt more healthy since the start of the treatment? • The tenth and eleventh questions asked whether hairs felt less fragile during the past month and since the start of the treatment. • The final questions asked whether participants had noticed their hair color increasing and whether it became less grey/white during the past month and since the start of the treatment.

hair growth [2] = test: Six-month study, hair growth by digital analysis of photographs of a chosen spot
Description: In a systematic study of twenty volunteers, including 8 women, study participants self-reported hair regrowth metrics by answering questionnaires at the end of each month of treatment with Formula (I) over the course of six months. The mean age of participants was 54 years old (SD=11 years). Participants had no history of hair implants and had normal eating and sleeping patterns. Participants first read and signed an informed consent form in which they were informed about the hair regeneration product, a lotion comprising Formula (I). The information about Formula (I) included that Formula (I) was designed to increase hair growth, that it was based on natural compounds, and that use of the product would not lead to harmful effects. Participants received explicit instructions on how to use the product, were asked to apply the product at least once a day on their scalp, and were asked not to use any other hair growth or regeneration products for the 6-month duration of the study. […] During this session photos were taken to measure and count any increases in hair regrowth, and participants answered questionnaires that probed the effects using Formula (I). […] Hair growth was measured by counting and estimating the total amount of thick/thin hairs on the specific spot, based on digital analysis of each photograph.

hair growth [3] = test: Before/after photographs of individual subjects (FIG. 2, FIG. 11)
Description: The subject in FIG. 2A starts out with a complete bald spot. […] Before treatment with Formula (I), the subject shown in FIG. 2C has dark, balding hair.

[4] = system: collagen in sun damaged skin; test: Cosmetic collagen regeneration clinical trial, high-resolution ultrasound scanner images of skin; conditions: ultrasound images before and after treatment, sun damaged skin (FIG. 12A/12B)
Experimental: In yet further aspects of the inventive subject matter, cosmetic collagen regeneration effects of Formula (I) were assessed in a clinical trial run by Sempervivum, a medical esthetics company. Twenty-four volunteers (22 women and 2 men) participated in this study. Participants were on average 59 years old (Mean (M)=59 years, Standard Deviation (SD)=12 years). In this case, the age of the participants is 59 years with an average deviation of 12 years. Participants had no history of cosmetic surgery and stated to have normal eating and sleeping patterns. High-resolution ultrasound scanner images of collagen in sun damaged skin are shown in FIG. 12A (before treatment) and FIG. 12B (after treatment). […] It also appears that more interconnected collagen fibers are present in the dermis of the skin, and spots representing collagen seem to be more connected and closer to the epidermal layer.

burn = test: Burned hands of a lab technician, one hand treated, other untreated; conditions: treated for one month; untreated hand developed calluses
Experimental: Along these lines, a lab technician who burned both hands, and hair regrowth at the site of the burn was assessed. One hand was treated for one month with a composition comprising Formula (I), and the other hand was left untreated. […] The untreated hand developed calluses instead.

[5] = over the course of treatment, questionnaires (FIG. 10)

## CC1=CC2(C(C)C)CC(=C1)C2(C)C (centres unmarked) [Formula (I), 3,6,6-trimethyl-5-(propan-2-yl)bicyclo[3.1.1]hepta-1,3-diene]
Hair growth [1]; after 1 month of treatment, self-reported
  participants who noticed new hair growth: 47%
Hair growth [1]; after 6 months of treatment, self-reported
  participants who noticed new hair growth: 94%
Hair growth [1]; at some point during treatment, self-reported
  participants who noticed an increase in hair loss: 20%
Hair growth [1]; conclusion from questionnaires and photo analyses, 6-month study
  overall effect on hair growth: highly effective in stimulating hair growth
Hair growth [1]; during the last month of treatment and since the start of treatment, self-reported (FIG. 5)
  participants who noticed an increase in healthy hair, thicker hair and less fragile hair: 85-92%
Hair growth [1]; last month of treatment and since start of treatment, self-reported (FIG. 6)
  hair color in participants with white/grey hair before treatment: significant increase in color
Hair growth [1]; over the course of treatment (FIG. 9)
  amount of thick hair in participants with thin hair: significant increase in the amount of thick hair
Hair growth [1]; [5]
  amount of white hair in participants with white/grey hair: increased to a lesser extent
  black hair as percent of total hair in participants with white/grey hair: increase in the percent of total hair that was black
Hair growth [1]; over the whole course of the treatment, self-reported, alopecia patients excluded
  participants who noticed that some new hairs fell out: 14%
Hair growth [2]; after 6 months, photo analysis (FIG. 8)
  increase in long fine and thick hairs in balding participants: triple to quadruple overall increases
Hair growth [2]; photo analysis, participants initially with no hair at the probed place (FIG. 7)
  hair growth in bald participants, including alopecia patients: both fine hairs and more thick hairs suddenly started to grow
Hair growth [3]; after 4 months of treatment (FIG. 11A/11B)
  hair regrowth at alopecia site, subject who lost all body hair after trauma: hair growth at the alopecia site
Hair growth [3]; after 6 months of treatment (FIG. 2A/2B)
  hair regrowth, subject with complete bald spot: white hair has grown into the bald spot
Hair growth [3]; after 6 months of treatment (FIG. 2C/2D)
  hair regrowth, subject with dark, balding hair: dark hair has begun to regrow
[4]
  collagen in skin after treatment: significant increases in collagen
burn
  skin outcome of burned hand: developed new smooth skin
